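Dose response: 5 concentrations. Exposure: 48 h. Format: 96-well plates. Endpoint: linear interpolation; highest concentration if not reached. Here, GI50 denotes the concentration required for 50% inhibition of growth.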 Active and inactive are the calls of the source. Rule as the data show it: active = GI50 up to about 1.1 µM and inactive = higher.
Columns and labels:
Assay in all cases: inhibition of tumour cell growth, NCI panel, 48 h
[1] = system: SF-268
[2] = system: EKVX
[3] = system: SNB-19
[4] = system: HOP-18
[5] = system: DMS-114
[6] = system: OVCAR-4
[7] = system: DMS-273
[8] = system: COLO 205
[9] = system: LOX IMVI
[10] = system: HL-60
[11] = system: RXF 393
[12] = system: UACC-257
[13] = system: SNB-75
[14] = system: NCI-H522
[15] = system: SK-MEL-5
[16] = system: HOP-92
[17] = system: NCI-H23
[18] = system: M14
[19] = system: SN12C
[20] = system: UACC-62
[21] = system: IGROV-1
[22] = system: NCI-H460
[23] = system: OVCAR-3
[24] = system: HT-29
[25] = system: Malme-3M
[26] = system: CAKI-1
[27] = system: SF-295
[28] = system: 786-0
[29] = system: MOLT-4
[30] = system: KM-20L2
[31] = system: CCRF-CEM
[32] = system: SK-MEL-28
[33] = system: SK-MEL-2
[34] = system: TK-10
[35] = system: XF498
[36] = system: SF-539
[37] = system: OVCAR-8
[38] = system: HOP-62
[39] = system: SR
[40] = system: HCT-116
[41] = system: M19-MEL
[42] = system: HCC 2998
[43] = system: SK-OV-3
[44] = system: KM12
[45] = system: SW-620
[46] = system: HCT-15
[47] = system: A549
[48] = system: DLD-1
[49] = system: ACHN
[50] = system: UO-31
[51] = system: LXFL 529
[52] = system: A498
[53] = system: NCI-H226
[54] = system: U-251
[55] = system: OVCAR-5
[56] = system: K562
[57] = system: RPMI-8226

Structure (SMILES): COc1cc(CC2C(=O)OCC2[C@@H](OC(C)=O)c2ccc3c(c2)OCO3)c(Br)c(OC)c1OC (stereo not given in full)
- GI50 [1]: > 100 µM (inactive)
- GI50 [2]: > 100 µM (inactive)
- GI50 [3]: > 100 µM (inactive)
- GI50 [4]: > 100 µM (inactive)
- GI50 [5]: 28 µM (inactive)
- GI50 [6]: 90.6 µM (inactive)
- GI50 [7]: 30.7 µM (inactive)
- GI50 [8]: 36.8 µM (inactive)
- GI50 [9]: > 100 µM (inactive)
- GI50 [10]: 35.6 µM (inactive)
- GI50 [11]: 51.3 µM (inactive)
- GI50 [12]: 69.5 µM (inactive)
- GI50 [13]: 28.5 µM (inactive)
- GI50 [14]: 26.5 µM (inactive)
- GI50 [15]: 30.9 µM (inactive)
- GI50 [16]: 12 µM (inactive)
- GI50 [17]: 68.9 µM (inactive)
- GI50 [18]: 50.9 µM (inactive)
- GI50 [19]: > 100 µM (inactive)
- GI50 [20]: 37.8 µM (inactive)
- GI50 [21]: 80.2 µM (inactive)
- GI50 [22]: 48.3 µM (inactive)
- GI50 [23]: 59.2 µM (inactive)
- GI50 [24]: 35.9 µM (inactive)
- GI50 [25]: 37.9 µM (inactive)
- GI50 [26]: > 100 µM (inactive)
- GI50 [27]: 33.1 µM (inactive)
- GI50 [28]: > 100 µM (inactive)
- GI50 [29]: 35.2 µM (inactive)
- GI50 [30]: 44 µM (inactive)
- GI50 [31]: 44.7 µM (inactive)
- GI50 [32]: 73.3 µM (inactive)
- GI50 [33]: 61.4 µM (inactive)
- GI50 [34]: > 100 µM (inactive)
- GI50 [35]: 62.8 µM (inactive)
- GI50 [36]: > 100 µM (inactive)
- GI50 [37]: > 100 µM (inactive)
- GI50 [38]: > 100 µM (inactive)
- GI50 [39]: 29.4 µM (inactive)
- GI50 [40]: 76.7 µM (inactive)
- GI50 [41]: 37.8 µM (inactive)
- GI50 [42]: 98.4 µM (inactive)
- GI50 [43]: > 100 µM (inactive)
- GI50 [44]: 31.5 µM (inactive)
- GI50 [45]: 58.3 µM (inactive)
- GI50 [46]: 19.1 µM
- GI50 [47]: 39.4 µM (inactive)
- GI50 [48]: > 100 µM (inactive)
- GI50 [49]: 99.8 µM (inactive)
- GI50 [50]: 53.3 µM (inactive)
- GI50 [51]: 33.9 µM (inactive)

Structure (SMILES): COc1ccc(/N=N/c2c(-c3ccccc3)nn(C(=O)CC(=O)Nc3cccc(Cl)c3)c2-c2ccccc2)cc1
- GI50 [1]: > 100 µM (inactive)
- GI50 [2]: 29.4 µM (inactive)
- GI50 [3]: > 100 µM (inactive)
- GI50 [4]: 66.8 µM (inactive)
- GI50 [5]: 45.8 µM (inactive)
- GI50 [6]: 67.9 µM (inactive)
- GI50 [7]: > 100 µM (inactive)
- GI50 [8]: > 100 µM (inactive)
- GI50 [9]: > 100 µM (inactive)
- GI50 [10]: > 100 µM (inactive)
- GI50 [52]: > 100 µM (inactive)
- GI50 [12]: > 100 µM (inactive)
- GI50 [13]: 6.08 µM (inactive)
- GI50 [14]: 43 µM (inactive)
- GI50 [15]: 72.9 µM (inactive)
- GI50 [16]: 40.6 µM (inactive)
- GI50 [53]: 4.82 µM (inactive)
- GI50 [17]: 22.6 µM (inactive)
- GI50 [19]: > 100 µM (inactive)
- GI50 [20]: > 100 µM (inactive)
- GI50 [21]: > 100 µM (inactive)
- GI50 [22]: 49.3 µM (inactive)
- GI50 [54]: > 100 µM (inactive)
- GI50 [23]: 29.6 µM (inactive)
- GI50 [24]: > 100 µM (inactive)
- GI50 [55]: 61.2 µM (inactive)
- GI50 [25]: > 100 µM (inactive)
- GI50 [26]: 34.5 µM (inactive)
- GI50 [27]: 26.9 µM (inactive)
- GI50 [28]: > 100 µM (inactive)
- GI50 [29]: 70.1 µM (inactive)
- GI50 [30]: 66.1 µM (inactive)
- GI50 [31]: > 100 µM (inactive)
- GI50 [32]: > 100 µM (inactive)
- GI50 [33]: > 100 µM (inactive)
- GI50 [34]: 72.9 µM (inactive)
- GI50 [35]: > 100 µM (inactive)
- GI50 [36]: 68.9 µM (inactive)
- GI50 [37]: > 100 µM (inactive)
- GI50 [56]: 85.7 µM (inactive)
- GI50 [38]: 24.2 µM (inactive)
- GI50 [40]: 45.6 µM (inactive)
- GI50 [41]: > 100 µM (inactive)
- GI50 [42]: 21.5 µM (inactive)
- GI50 [43]: > 100 µM (inactive)
- GI50 [44]: 10.9 µM (inactive)
- GI50 [45]: > 100 µM (inactive)
- GI50 [46]: > 100 µM
- GI50 [47]: 32.3 µM (inactive)
- GI50 [48]: 40.6 µM (inactive)
- GI50 [49]: > 100 µM (inactive)
- GI50 [50]: 5.11 µM (inactive)
- GI50 [57]: > 100 µM (inactive)
- GI50 [51]: > 100 µM (inactive)
